Results reported in patent US7868026B2, “Therapeutic compounds” (Pfizer Inc., priority 2005, dated 2011).
Where two headings read alike, the source gives them in different places.

Tests used:
Assay type in all cases: biochemical
CYP3A4 [1] = target: T1, CYP3A4 (Homo sapiens, UniProt P08684); assay: Determination of IC50 against CYP3A4 by measurement of inhibition of testosterone metabolism (human liver microsomes, 6-β-OH-testosterone by LC-MS/MS); parameters: 0.1 mg/mL human liver microsomes; settings: read-out: IC50 (Testo.)
Method in brief: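 Human liver microsomes (0.1 mg/mL) incubated with 25 μM testosterone and 1 mM NADPH in 100 mM potassium phosphate, pH 7.4, for eight minutes. 6-β-OH-testosterone measured by LC-MS/MS in MRM mode against an internal standard and quantified from a metabolite standard curve.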

CYP3A4 [2] = target: T1, CYP3A4; assay: Determination of compound Kiapp against recombinant CYP3A4 enzyme (BFC fluorescent substrate)
Method in brief: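 Recombinant CYP3A4 (5.5 or 8 nM, with or without b5 depending on source) pre-incubated with inhibitor ≥30 min at room temperature in 100 mM sodium phosphate pH 7.0, 5 mM TCEP, 2% DMF. Reaction started with 200 uM NADPH and 5 uM BFC; initial fluorescence rates over 5 min fitted to Morrison tight-binding (non-partial) or Szedlacsek (partial) equations for Kiapp.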

CYP3A4 [3] = target: T1, CYP3A4; assay: Determination of IC50 against CYP3A4 by measurement of inhibition of midazolam metabolism (human liver microsomes, 1-hydroxymidazolam by LC-MS/MS); parameters: 0.1 mg/mL human liver microsomes; settings: 2 μM midazolam, 0.1 mg/mL human liver microsomes
Method in brief: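 Human liver microsomes (0.1 mg/mL) incubated 8 min with 2 μM midazolam and 1 mM NADPH in 100 mM potassium phosphate, pH 7.4. 1-Hydroxymidazolam quantified by LC-MS/MS (MRM) as peak area ratio to internal standard against a metabolite standard curve.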

[4] = Baculo. enzyme preparation, read-out: Kiapp (BFC, Baculo.)
[5] = Super. enzyme preparation, read-out: Kiapp (BFC, Super.)

T1 sequence (P08684 whole entry): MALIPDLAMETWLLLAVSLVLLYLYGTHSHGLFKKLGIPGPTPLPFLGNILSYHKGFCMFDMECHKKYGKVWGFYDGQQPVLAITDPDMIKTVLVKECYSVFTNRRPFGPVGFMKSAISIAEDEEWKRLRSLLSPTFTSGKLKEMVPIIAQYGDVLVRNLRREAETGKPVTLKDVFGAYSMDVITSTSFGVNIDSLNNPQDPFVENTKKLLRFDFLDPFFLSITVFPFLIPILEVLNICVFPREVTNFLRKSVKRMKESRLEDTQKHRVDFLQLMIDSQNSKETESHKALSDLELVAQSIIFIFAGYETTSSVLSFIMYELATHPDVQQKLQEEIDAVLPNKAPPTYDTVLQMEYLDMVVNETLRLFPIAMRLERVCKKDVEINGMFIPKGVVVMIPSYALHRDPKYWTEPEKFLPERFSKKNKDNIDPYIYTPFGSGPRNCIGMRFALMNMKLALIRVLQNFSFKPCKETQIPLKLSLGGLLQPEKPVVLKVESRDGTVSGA

SMILES | IC50 (CYP3A4 [1]) [nM] | Ki (CYP3A4 [2]; [4]) [nM] | Ki (CYP3A4 [2]; [5]) [nM] | IC50 (CYP3A4 [3]) [nM]
Cc1ccncc1NS(=O)(=O)c1ccccc1C(=O)NCc1ccc(S(C)(=O)=O)cc1 [Example 169, 2-{[(4-methylpyridin-3-yl)amino]sulfonyl}-N-[4-(methylsulfonyl)benzyl]benzamide] | 395 | > 1000 | 187 | 139
COCCN(C)C(=O)c1ccccc1S(=O)(=O)Nc1cnccc1C [Example 170, N-(2-methoxyethyl)-N-methyl-2-{[(4-methylpyridin-3-yl)amino]sulfonyl}benzamide] | 285 | > 1000 | 427 | 557
Cc1ccncc1NS(=O)(=O)c1ccccc1C(=O)NCCOc1ccccc1 [Example 171, 2-{[(4-methylpyridin-3-yl)amino]sulfonyl}-N-(2-phenoxyethyl)benzamide] | 38 | 299 | 49.1 | 35
Cc1ccncc1NS(=O)(=O)c1ccccc1C(=O)N(C)Cc1ccc(F)c(F)c1 [Example 172, N-(3,4-difluorobenzyl)-N-methyl-2-{[(4-methylpyridin-3-yl)amino]sulfonyl}benzamide] | 34 | 173 | 21.7 | 44
COc1cncc(NS(=O)(=O)c2ccccc2C(=O)N(C)CCOc2ccccc2)c1 [Example 173, 2-{[(5-methoxypyridin-3-yl)amino]sulfonyl}-N-methyl-N-(2-phenoxyethyl)benzamide] | 18 | 104 | 9.9 | 16
COCCNC(=O)c1ccccc1S(=O)(=O)Nc1cnccc1C [Example 174, N-(2-methoxyethyl)-2-{[(4-methylpyridin-3-yl)amino]sulfonyl}benzamide] | 356 | > 1000 | 392 | 451
COc1cncc(NS(=O)(=O)c2ccccc2C(=O)NCc2cccc(Cl)c2F)c1 [Example 175, N-(3-chloro-2-fluorobenzyl)-2-{[(5-methoxypyridin-3-yl)amino]sulfonyl}benzamide] | 9 | 24 | 1.3 | 9
COc1cncc(NS(=O)(=O)c2ccccc2C(=O)NCCO)c1 [Example 176, N-(2-hydroxyethyl)-2-{[(5-methoxypyridin-3-yl)amino]sulfonyl}benzamide] | > 750 | > 1000 | 625 | 406
Cc1ccccc1CCNC(=O)c1ccccc1S(=O)(=O)Nc1cnccc1C [Example 177, N-[2-(2-methylphenyl)ethyl]-2-{[(4-methylpyridin-3-yl)amino]sulfonyl}benzamide] | 12 | 70.6 | 3.5 | 11
Cc1ccncc1NS(=O)(=O)c1ccccc1C(=O)NC(C)(C)C [Example 178, N-(tert-butyl)-2-{[(4-methylpyridin-3-yl)amino]sulfonyl}benzamide] | 97 | > 1000 | 106 | 70
Cc1ccncc1NS(=O)(=O)c1ccccc1C(=O)NCCC(C)C [Example 179, N-(3-methylbutyl)-2-{[(4-methylpyridin-3-yl)amino]sulfonyl}benzamide] | 58 | 314 | 63.7 | 45
COc1cncc(NS(=O)(=O)c2ccccc2C(=O)NCc2c(F)ccc(C)c2F)c1 [Example 180, N-(2,6-difluoro-3-methylbenzyl)-2-{[(5-methoxypyridin-3-yl)amino]sulfonyl}benzamide] | 11 | 92.8 | 7 | 4
COc1cncc(NS(=O)(=O)c2ccccc2C(=O)NCc2cccc(F)c2F)c1 [Example 181, N-(2,3-difluorobenzyl)-2-{[(5-methoxypyridin-3-yl)amino]sulfonyl}benzamide] | 13 | 71.8 | 10.8 | 7
COc1cncc(NS(=O)(=O)c2ccccc2C(=O)NC(C)c2ccc(Cl)cc2)c1 (centres unmarked) [Example 182, N-[1-(4-chlorophenyl)ethyl]-2-{[(5-methoxypyridin-3-yl)amino]sulfonyl}benzamide] | 13 | 37.4 | 3.5 | 6
COc1cncc(NS(=O)(=O)c2ccccc2C(=O)NCc2ccc(F)cc2Cl)c1 [Example 183, N-(2-chloro-4-fluorobenzyl)-2-{[(5-methoxypyridin-3-yl)amino]sulfonyl}benzamide] | 11 | 22.6 | 2 | 5
COc1cncc(NS(=O)(=O)c2ccccc2C(=O)NCc2cc(F)cc(F)c2)c1 [Example 184, N-(3,5-difluorobenzyl)-2-{[(5-methoxypyridin-3-yl)amino]sulfonyl}benzamide] | 11 | 54.5 | 5.9 | 13
COc1cncc(NS(=O)(=O)c2ccccc2C(=O)NCc2cccc(Cl)c2Cl)c1 [Example 185, N-(2,3-dichlorobenzyl)-2-{[(5-methoxypyridin-3-yl)amino]sulfonyl}benzamide] | 10 | 17.1 | 2.8 | 11
COc1cncc(NS(=O)(=O)c2ccccc2C(=O)NCc2ccccc2OC)c1 [Example 186, N-(2-methoxybenzyl)-2-{[(5-methoxypyridin-3-yl)amino]sulfonyl}benzamide] | 7 | 171 | 9.7 | 6
COc1cncc(NS(=O)(=O)c2ccccc2C(=O)NC2CCCCC2)c1 [Example 187, N-cyclohexyl-2-{[(5-methoxypyridin-3-yl)amino]sulfonyl}benzamide] | 28 | 257 | 35.9 | 22
COc1cncc(NS(=O)(=O)c2ccccc2C(=O)NCC2(O)C3CC4CC(C3)CC2C4)c1 (centres unmarked) [Example 188, N-[(2-hydroxy-2-adamantyl)methyl]-2-{[(5-methoxypyridin-3-yl)amino]sulfonyl}benzamide] | 12 | 36.4 | 3.4 | 8
CCCCC(CO)NC(=O)c1ccccc1S(=O)(=O)Nc1cncc(OC)c1 (centres unmarked) [Example 189, N-[1-(hydroxymethyl)pentyl]-2-{[(5-methoxypyridin-3-yl)amino]sulfonyl}benzamide] | 48 | 175 | 27.4 | 24
COc1cncc(NS(=O)(=O)c2ccccc2C(=O)N[C@H](CO)CC2CCCCC2)c1 [Example 190, N-[(1S)-2-cyclohexyl-1-(hydroxymethyl)ethyl]-2-{[(5-methoxypyridin-3-yl)amino]sulfonyl}benzamide] | 16 | 16.9 | 3.4 | 7
COc1cncc(NS(=O)(=O)c2ccccc2C(=O)NCCc2ccc(F)cc2F)c1 [Example 191, N-[2-(2,4-difluorophenyl)ethyl]-2-{[(5-methoxypyridin-3-yl)amino]sulfonyl}benzamide] | 15 | 59.7 | 5 | 10
COc1cncc(NS(=O)(=O)c2ccccc2C(=O)NCc2cccc(Cl)c2)c1 [Example 192, N-(3-chlorobenzyl)-2-{[(5-methoxypyridin-3-yl)amino]sulfonyl}benzamide] | 7 | 23.7 | 2.7 | 7
CCC(CC)NC(=O)c1ccccc1S(=O)(=O)Nc1cncc(OC)c1 [Example 193, N-(1-ethylpropyl)-2-{[(5-methoxypyridin-3-yl)amino]sulfonyl}benzamide] | 27 | 41.2 | 21.7 | 13
COC[C@@H]1[C@@H]2C[C@@H]3[C@H]1CN(C(=O)c1ccccc1S(=O)(=O)Nc1cncc(OC)c1)[C@@H]3C2 [Example 194, 2-{[(3R,3aR,5R,6aR,7R)-7-(methoxymethyl)hexahydro-3,5-methanocyclopenta[b]pyrrol-1(2H)-yl]carbonyl}-N-(5-methoxypyridin-3-yl)benzenesulfonamide] | 99 | 376 | 68.5 | 73
CCCN(CC)C(=O)c1ccccc1S(=O)(=O)Nc1cncc(OC)c1 [Example 195, N-ethyl-2-{[(5-methoxypyridin-3-yl)amino]sulfonyl}-N-propylbenzamide] | 32 | 70.8 | 35.6 | 15
COc1cncc(NS(=O)(=O)c2ccccc2C(=O)N2CCOC(c3c(F)cccc3F)C2)c1 (centres unmarked) [Example 196, 2-{[2-(2,6-difluorophenyl)morpholin-4-yl]carbonyl}-N-(5-methoxypyridin-3-yl)benzenesulfonamide] | 58 | 379 | 74.5 | 51
COc1cncc(NS(=O)(=O)c2ccccc2C(=O)NCCc2cc(F)ccc2F)c1 [Example 197, N-[2-(2,5-difluorophenyl)ethyl]-2-{[(5-methoxypyridin-3-yl)amino]sulfonyl}benzamide] | 18 | 69.5 | 20.1 | 4
